The series has as its target T1, CYP2B6 (Homo sapiens, UniProt P20813).
T1 sequence (P20813 1-491): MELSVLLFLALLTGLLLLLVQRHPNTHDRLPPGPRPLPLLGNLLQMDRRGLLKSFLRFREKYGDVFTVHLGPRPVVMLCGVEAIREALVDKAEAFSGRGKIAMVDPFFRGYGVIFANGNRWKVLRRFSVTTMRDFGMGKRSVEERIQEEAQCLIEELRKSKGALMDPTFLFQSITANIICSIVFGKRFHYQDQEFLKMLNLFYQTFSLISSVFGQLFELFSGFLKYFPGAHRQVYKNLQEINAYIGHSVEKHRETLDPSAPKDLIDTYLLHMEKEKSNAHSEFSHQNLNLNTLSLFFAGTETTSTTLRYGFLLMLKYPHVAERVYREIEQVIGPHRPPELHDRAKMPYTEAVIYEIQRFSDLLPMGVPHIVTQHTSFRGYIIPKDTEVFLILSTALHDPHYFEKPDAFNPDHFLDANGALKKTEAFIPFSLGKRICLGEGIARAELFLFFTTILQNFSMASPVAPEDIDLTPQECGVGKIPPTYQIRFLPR
The series is described as follows: CYP2B6 inhibition, probe/drug metabolism in human liver microsomes. On the technique in general: Liver microsomes are a subcellular fraction often used to study metabolism.

On to `CC(CCC(O)C(C)(O)CO)C1CCC2(C)C3=C(C(=O)CC12C)C1(C)CCC(=O)C(C)(C)C1CC3` (centres unmarked) [Compound 25, ganodrol C], for which the IC50 was found to be 25.3 ± 3.7 µM (IC50 against CYP 2B6, substrate bupropion 75 μM, HLM); 21.5 ± 3.44 µM (IC50 against metabolism of artemisinin mediated by CYP2B6, substrate artemisinin 10 μM, 30 min); 24.3 ± 3.05 µM (IC50 against metabolism of efavirenz mediated by CYP2B6, substrate efavirenz 20 μM, 30 min); 25.1 ± 2.86 µM (IC50 against metabolism of sertraline mediated by CYP2B6, substrate sertraline 5 μM, 30 min). This compound also had an activity at 30 min (human, human liver microsomes, pH 7.4, probe bupropion 75 μM, Residual activity (%) CYP2B6, HLM 0.5 mg/mL, bupropion 75 μM, 30 min) of 56.8 ± 2.04%.

Usually IC50 stands for the midpoint of a concentration-inhibition curve.

Source of the values: paper PMC11605156, “Triterpenoids from Ganoderma lucidum inhibit cytochrome P450 enzymes interfering with the metabolic process of specific clinical drugs” (Frontiers in Pharmacology, 2024).
